ChEMBL document CHEMBL3217631, “Potent sirtuin inhibition bestowed by l-2-amino-7-carboxamidoheptanoic acid (l-ACAH), a N-acetyl-lysine analog” (Medchemcomm, 2011)
Calls of active or inactive are those of the source. The calls are words filed in the database; no cut-off is given here. Square brackets hold non-standard residues; d marks the D form. Peptide text beside a SMILES is read from it. Asu = N[C@@H](CCCCCC(=O)O)C(=O)O

How the values were obtained:
[1] = target: T1, NAD-dependent protein deacetylase sirtuin-1 (Homo sapiens, UniProt Q96EB6); assay: Inhibition of lysine deacetylase activity of human full length GST-tagged SIRT1 expressed in Escherichia coli using H2N-HK-AcK-LM-COOH as substrate incubated with enzyme for 5 mins by reverse-phase HPLC analysis
T1 sequence (Q96EB6 whole entry): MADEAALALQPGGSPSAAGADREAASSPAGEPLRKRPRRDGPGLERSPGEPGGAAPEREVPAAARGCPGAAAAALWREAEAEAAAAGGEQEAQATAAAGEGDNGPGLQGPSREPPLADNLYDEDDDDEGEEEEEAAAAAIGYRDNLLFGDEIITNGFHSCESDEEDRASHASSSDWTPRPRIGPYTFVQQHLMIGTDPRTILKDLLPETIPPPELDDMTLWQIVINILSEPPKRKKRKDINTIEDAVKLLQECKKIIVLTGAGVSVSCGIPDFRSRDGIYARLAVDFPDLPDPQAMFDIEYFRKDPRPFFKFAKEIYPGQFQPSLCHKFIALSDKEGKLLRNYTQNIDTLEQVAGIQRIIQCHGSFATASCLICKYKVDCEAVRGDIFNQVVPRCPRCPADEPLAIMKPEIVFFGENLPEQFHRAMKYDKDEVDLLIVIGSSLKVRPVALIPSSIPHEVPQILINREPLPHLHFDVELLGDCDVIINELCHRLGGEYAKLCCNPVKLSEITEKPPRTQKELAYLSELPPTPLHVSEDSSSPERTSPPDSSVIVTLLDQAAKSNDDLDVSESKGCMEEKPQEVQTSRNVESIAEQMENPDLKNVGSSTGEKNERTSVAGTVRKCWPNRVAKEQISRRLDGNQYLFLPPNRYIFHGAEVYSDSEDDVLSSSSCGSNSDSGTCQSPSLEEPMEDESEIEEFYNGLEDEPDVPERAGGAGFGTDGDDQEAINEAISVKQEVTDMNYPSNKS

[2] = target: T1, NAD-dependent protein deacetylase sirtuin-1; assay: Competitive inhibition of human full length GST-tagged SIRT1 expressed in Escherichia coli using H2N-HK-AcK-LM-COOH as substrate assessed as enzymatic deacetylation product formation incubated with enzyme for 5 mins by double reciprocal plot analysis
[3] = target: T2, NAD-dependent protein deacetylase sirtuin-1 (Homo sapiens) (UniProt Q96EB6); assay: Time-dependent inhibition of human full length GST-tagged SIRT1 expressed in Escherichia coli using H2N-HK-AcK-LM-COOH as substrate assessed as enzymatic deacetylation product formation at 5 to 10 uM by reverse-phase HPLC analysis
T2 sequence (whole entry): T1 sequence (Q96EB6 whole entry)

[4] = target: T2, NAD-dependent protein deacetylase sirtuin-1 (Homo sapiens); assay: Irreversible inhibition of human full length GST-tagged SIRT1 expressed in Escherichia coli using H2N-HK-AcK-LM-COOH as substrate assessed as recovery of enzyme activity at 150 uM preincubated for 30 mins followed by rapid dilution of preformed enzyme-inhibitor complex measured after 2 to 30 mins by reverse-phase HPLC analysis
[5] = target: T2, NAD-dependent protein deacetylase sirtuin-1 (Homo sapiens); assay: Mechanism based inhibition of human full length GST-tagged SIRT1 expressed in Escherichia coli assessed as longer-lived stabilized catalytic intermediate formation at 0.4 mM after 30 mins by MALDI-MS analysis in presence of NAD+
[6] = target: T2, NAD-dependent protein deacetylase sirtuin-1 (Homo sapiens); assay: Mechanism based inhibition of human full length GST-tagged SIRT1 expressed in Escherichia coli assessed as longer-lived stabilized catalytic intermediate 2 formation at 0.4 mM after 30 mins by MALDI-MS analysis in presence of NAD+ and 20% (v/v) methanol
[7] = target: T2, NAD-dependent protein deacetylase sirtuin-1 (Homo sapiens); assay: Mechanism based inhibition of human full length GST-tagged SIRT1 expressed in Escherichia coli assessed as longer-lived stabilized catalytic intermediate 3 formation at 0.4 mM after 30 mins by MALDI-MS analysis in presence of NAD+ and 63% (v/v) H218O
[8] = target: T3, NAD-dependent protein deacetylase (Thermotoga maritima (strain ATCC 43589 / MSB8 / DSM 3109 / JCM 10099)) (UniProt Q9WYW0); assay: Mechanism based inhibition of Thermotoga maritima Sir2Tm assessed as longer-lived stabilized catalytic intermediate formation at 0.4 mM after 30 mins by MALDI-MS analysis in presence of NAD+
T3 sequence (whole entry): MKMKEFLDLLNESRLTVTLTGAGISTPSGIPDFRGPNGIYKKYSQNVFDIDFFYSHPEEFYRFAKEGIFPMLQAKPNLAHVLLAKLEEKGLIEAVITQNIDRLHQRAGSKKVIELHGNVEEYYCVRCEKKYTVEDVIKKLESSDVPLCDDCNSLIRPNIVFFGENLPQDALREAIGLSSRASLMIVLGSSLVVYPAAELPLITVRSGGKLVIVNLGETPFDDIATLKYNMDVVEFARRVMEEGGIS

[9] = target: T2, NAD-dependent protein deacetylase sirtuin-1 (Homo sapiens); assay: Inhibition of lysine deacetylase activity of human full length GST-tagged SIRT1 expressed in Escherichia coli using H2N-HK-AcK-LM-COOH as substrate at 500 uM incubated with enzyme for 5 mins by reverse-phase HPLC analysis
[10] = target: T2, NAD-dependent protein deacetylase sirtuin-1 (Homo sapiens); assay: Inhibition of SIRT1 in human HCT116 cells assessed as enhancement of p53 acetylation at K382 position after 8 hrs by Western blot analysis; assay type: cell-based; conditions: HCT-116
[11] = target: T2, NAD-dependent protein deacetylase sirtuin-1 (Homo sapiens); assay: Inhibition of SIRT1 in human HCT116 cells assessed as enhancement of p53 acetylation at K382 position at 5 uM after 8 hrs by Western blot analysis; assay type: cell-based; conditions: HCT-116
[12] = target: T2, NAD-dependent protein deacetylase sirtuin-1 (Homo sapiens); assay: Inhibition of SIRT1 in human HCT116 cells assessed as enhancement of p53 acetylation at K382 position at 50 uM after 8 hrs by Western blot analysis; assay type: cell-based; conditions: HCT-116
[13] = target: T4, Histone deacetylase 8 (Homo sapiens) (UniProt Q9BY41); assay: Inhibition of human full length HDAC8 using CH3CONH-RH-AcK-(AcK)-CONH2 as substrate assessed as enzymatic deacetylation product formation measured at 500 uM after 1 hr by HPLC analysis
T4 sequence (whole entry): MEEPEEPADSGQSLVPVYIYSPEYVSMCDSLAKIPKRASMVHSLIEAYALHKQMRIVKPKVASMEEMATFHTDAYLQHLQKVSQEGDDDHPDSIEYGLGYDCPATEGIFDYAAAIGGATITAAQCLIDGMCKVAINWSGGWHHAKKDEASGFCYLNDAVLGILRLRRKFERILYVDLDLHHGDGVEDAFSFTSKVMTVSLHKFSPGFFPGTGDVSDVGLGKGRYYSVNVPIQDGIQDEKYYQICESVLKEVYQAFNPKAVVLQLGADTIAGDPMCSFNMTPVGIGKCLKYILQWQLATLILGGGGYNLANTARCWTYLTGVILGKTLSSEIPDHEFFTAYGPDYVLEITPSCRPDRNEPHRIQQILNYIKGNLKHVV

NC(=O)CCCCC[C@H](NC(=O)OCc1ccccc1)C(=O)Nc1ccccc1
IC50 [1]: > 1000 µM

CSCC[C@H](NC(=O)[C@H](CC(C)C)NC(=O)[C@H](CCCCCC(N)=O)NC(=O)[C@H](CCCCN)NC(=O)[C@H](Cc1cnc[nH]1)NC(C)=O)C(N)=O (Ac-HK[Asu](NH2)LM-NH2)
IC50 [1]: 11.7 µM
Ki [2]: 2.6 µM
inhibition [3]: Active
Activity [4]: inactive
inhibition [5]: Active
inhibition [6]: Active
inhibition [7]: Active
inhibition [8]: Active

COC(=O)CCCCC[C@H](NC(=O)[C@H](CCCCN)NC(=O)[C@H](Cc1cnc[nH]1)NC(C)=O)C(=O)N[C@@H](CC(C)C)C(=O)N[C@@H](CCSC)C(N)=O (Ac-HK[Asu](OMe)LM-NH2)
inhibition [9]: inactive

CC(=O)NCCCC[C@H](NC(=O)[C@H](CCCCCC(N)=O)NC(=O)[C@H](CCCCNC(C)=O)NC(C)=O)C(N)=O (Ac-Lys(Ac)-[Asu](NH2)-Lys(Ac)-NH2)
Activity [10]: Dose-dependent effect
Activity [11]: inactive
Activity [12]: Active

CC(=O)NCCCC[C@H](NC(=O)[C@H](Cc1cnc[nH]1)NC(=O)[C@H](CCCNC(=N)N)NC(C)=O)C(=O)N[C@@H](CCCCCC(N)=O)C(N)=O (Ac-RHK(Ac)[Asu](NH2)-NH2)
inhibition [13]: 12%
